Columns and labels:
HCMV V823A polymerase = biological target: T1, HCMV V823A polymerase (Human cytomegalovirus, UniProt P08546, V823A); test: In vitro polymerase assay, mutant HCMV polymerase V823A; format: biochemical
T1 construct: made in house
T1 sequence (P08546 1-1242 V823A): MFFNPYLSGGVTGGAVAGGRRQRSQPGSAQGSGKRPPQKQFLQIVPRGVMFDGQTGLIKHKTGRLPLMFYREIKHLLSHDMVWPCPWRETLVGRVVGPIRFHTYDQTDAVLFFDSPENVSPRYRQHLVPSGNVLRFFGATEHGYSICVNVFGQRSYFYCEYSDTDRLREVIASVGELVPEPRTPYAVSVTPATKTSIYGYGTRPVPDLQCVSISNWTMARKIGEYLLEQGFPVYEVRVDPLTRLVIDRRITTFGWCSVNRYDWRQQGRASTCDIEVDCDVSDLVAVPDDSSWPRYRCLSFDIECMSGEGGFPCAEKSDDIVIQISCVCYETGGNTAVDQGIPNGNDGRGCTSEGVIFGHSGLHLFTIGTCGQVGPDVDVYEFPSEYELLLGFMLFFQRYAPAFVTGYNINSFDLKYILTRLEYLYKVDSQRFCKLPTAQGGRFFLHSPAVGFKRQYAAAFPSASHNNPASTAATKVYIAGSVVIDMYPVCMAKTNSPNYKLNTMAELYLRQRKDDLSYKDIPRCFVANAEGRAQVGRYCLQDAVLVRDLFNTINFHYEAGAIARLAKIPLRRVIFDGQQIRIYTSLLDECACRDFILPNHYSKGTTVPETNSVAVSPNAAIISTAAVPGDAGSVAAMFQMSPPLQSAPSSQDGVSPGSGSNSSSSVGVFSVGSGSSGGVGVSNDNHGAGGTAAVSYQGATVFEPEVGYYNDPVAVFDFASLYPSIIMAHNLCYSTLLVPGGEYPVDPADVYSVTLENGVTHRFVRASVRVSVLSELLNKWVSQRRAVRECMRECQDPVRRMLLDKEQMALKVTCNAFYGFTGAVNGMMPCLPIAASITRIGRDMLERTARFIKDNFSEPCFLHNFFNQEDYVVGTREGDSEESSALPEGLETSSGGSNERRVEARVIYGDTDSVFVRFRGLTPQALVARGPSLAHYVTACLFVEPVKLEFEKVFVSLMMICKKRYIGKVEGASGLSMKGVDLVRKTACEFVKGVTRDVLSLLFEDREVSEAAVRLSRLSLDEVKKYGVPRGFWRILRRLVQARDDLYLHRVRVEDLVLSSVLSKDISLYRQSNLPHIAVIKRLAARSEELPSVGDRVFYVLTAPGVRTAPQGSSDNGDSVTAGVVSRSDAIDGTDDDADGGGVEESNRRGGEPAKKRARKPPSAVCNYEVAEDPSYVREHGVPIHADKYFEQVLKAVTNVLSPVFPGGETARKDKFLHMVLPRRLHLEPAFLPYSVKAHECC
Protocol: In order to select for a 4-oxo-DHQ HCMV resistant mutant, virus (strain AD169) is serially passaged in the presence of 20 uM a 4-oxo-DHQ. […] In order to determine if both valines need to be changed in order to confer resistance to the 4-oxo-DHQ's, in vitro polymerase assays are done using mutant HCMV polymerases containing either V823A or V823A plus V824L (Table 3).

HCMV AD169 = test: Plaque reduction assay, HCMV AD169; format: cell-based; conditions: Table 4, plaque reduction, wild type; read-out: HCMV AD169 IC50
Protocol: (§1) Antiviral activity of compounds against herpesviruses such as HSV-1, HSV-2, or HCMV can be measured using plaque reduction assays. 0.1 ml of media containing approximately 50 PFU of virus is added to each well of a 24-well cell culture dish containing a confluent monolayer of cells (Vero cells for HSV-1 and HSV-2, HFF cells for HCMV). Compounds are dissolved in 100% DMSO and diluted in 100% DMSO as 200× stocks of the desired final drug concentration. Typically 5-6 two-fold dilutions are prepared for each compound. Dilutions of compounds are then added to media containing 0.8% CMC resulting in a final 1× drug concentration. After the virus-infected cells have incubated for 1 h at 37° C., the virus innoculum is removed and 1 ml of media containing 0.8% CMC and the various concentrations of compound is added to each well of the dish. The dish is incubated at 37° C. for approximately 2-3 days (HSV-1 and HSV-2) or 6-9 days (HCMV) to allow sufficient growth of virus to form plaques in the cell monolayer. Plaques can be observed and counted microscopically or by staining the cells with 0.1% crystal violet in 20% ethanol. […] Antiviral activity of a compound is expressed as the concentration of compound predicted to reduce the number of plaques in a well by 50% (IC50). The IC50 values are calculated by plotting the per cent inhibition vs. concentration of compound using EXCEL software for linear regression.

HSV-2 186 = test: Plaque reduction assay, HSV-2 186; format: cell-based; conditions: Table 1, plaque reduction, Vero cells
Protocol: as §1
(§2) A panel of viruses consisting of four strains of HSV-1 (KOS, F, DJL, Patton) and three strains of HSV-2 (MS, 35D, 186) are tested in a plaque reduction assay against four different 4-oxo-DHQ compounds (#1, 2, 4, 5 as shown in FIG. 1), and one 4-oxo-DHTP compound (#3 as shown in FIG. 1) and against Acyclovir. The six drugs inhibited replication of the seven virus strains with IC50 values ranging from 2-10 μM (Table 1). In order to select for 4-oxo-DHQ resistant mutants, HSV-1 strains KOS, F, and DJL along with HSV-2 strains 186 and MS are serially passaged in the presence of 20 uM compound 1. Following the seventh passage, 4-oxo-DHQ resistant virus from each strain are plaque purified three times and high-titer stocks are made.

HSV-2 MS = test: Plaque reduction assay, HSV-2 MS; format: cell-based; conditions: Table 1, plaque reduction, Vero cells; read-out: IC50 (uM), HSV-2 MS
Protocol: as §1, §2

HSV-2 186-M1 (V828A) = test: Plaque reduction assay, 4-oxo-DHQ resistant HSV-2 186-M1; format: cell-based; conditions: Table 2, mutant V828A
Protocol: (§3) Antiviral activity of compounds against herpesviruses such as HSV-1, HSV-2, or HCMV can be measured using plaque reduction assays. 0.1 ml of media containing approximately 50 PFU of virus is added to each well of a 24-well cell culture dish containing a confluent monolayer of cells (Vero cells for HSV-1 and HSV-2, HFF cells for HCMV). Compounds are dissolved in 100% DMSO and diluted in 100% DMSO as 200× stocks of the desired final drug concentration. Typically 5-6 two-fold dilutions are prepared for each compound. Dilutions of compounds are then added to media containing 0.8% CMC resulting in a final 1× drug concentration. After the virus-infected cells have incubated for 1 h at 37° C., the virus innoculum is removed and 1 ml of media containing 0.8% CMC and the various concentrations of compound is added to each well of the dish. The dish is incubated at 37° C. for approximately 2-3 days (HSV-1 and HSV-2) or 6-9 days (HCMV) to allow sufficient growth of virus to form plaques in the cell monolayer. Plaques can be observed and counted microscopically or by staining the cells with 0.1% crystal violet in 20% ethanol. […] The IC50 values are calculated by plotting the per cent inhibition vs. concentration of compound using EXCEL software for linear regression. […]

HSV-1 F-M1 (V823A) = test: Plaque reduction assay, 4-oxo-DHQ resistant HSV-1 F-M1; format: cell-based; conditions: Table 2, mutant V823A
Protocol: as §3

What does the source list for `Cn1cc(C(=O)NCc2ccc(Cl)cc2)c(=O)c2cc(/C=C\CO)cc(F)c21` [Compound 1]?
IC50 (HCMV V823A polymerase; Table 3): 17.2 µM; increase in resistance, HCMV V823A polymerase (HCMV V823A polymerase; relative to wild type polymerase): *Generation of the valine to alanine at amino acid 823 of HCMV results in a 3.5-fold increase in resistance.; IC50 (HCMV AD169): 700 nM; IC50 (HSV-2 186): 2 µM; IC50 (HSV-2 MS): 2 µM; IC50 (HSV-2 186-M1 (V828A)): > 20 µM; IC50 (HSV-1 F-M1 (V823A)): > 20 µM
